Laboratory results published in patent US5571836A, “Viral attachment inhibitors” (priority 1995, dated 1996).
Structures can show the parent of a compound that is named as a salt.

Columns and labels:
[1] = Stability of compound (observation); assay type: physicochemical; settings: must be used immediately in coupling with polymer
[2] = test system: influenza virus Taiwan/1/86; test: Fetuin binding inhibition assay, influenza virus Taiwan/1/86; settings: for A^i (absorbance): 492 nm
[3] = test system: influenza virus USSR/2/85; test: Fetuin binding inhibition assay, influenza virus USSR/2/85; settings: for A^i (absorbance): 492 nm
[4] = test system: influenza virus Texas/1/77; test: Fetuin binding inhibition assay, influenza virus Texas/1/77; settings: for A^i (absorbance): 492 nm
[5] = molecular target: Vibrio cholerae neuraminidase (Vibrio cholerae, UniProt P0C6E9); test: Neuraminidase cleavage (resistance), TLC analysis; assay type: biochemical; settings: 37° C., 450 U/ml, pH 5.6; compared with compound (IV)
Chain of Vibrio cholerae neuraminidase (P0C6E9 25-781): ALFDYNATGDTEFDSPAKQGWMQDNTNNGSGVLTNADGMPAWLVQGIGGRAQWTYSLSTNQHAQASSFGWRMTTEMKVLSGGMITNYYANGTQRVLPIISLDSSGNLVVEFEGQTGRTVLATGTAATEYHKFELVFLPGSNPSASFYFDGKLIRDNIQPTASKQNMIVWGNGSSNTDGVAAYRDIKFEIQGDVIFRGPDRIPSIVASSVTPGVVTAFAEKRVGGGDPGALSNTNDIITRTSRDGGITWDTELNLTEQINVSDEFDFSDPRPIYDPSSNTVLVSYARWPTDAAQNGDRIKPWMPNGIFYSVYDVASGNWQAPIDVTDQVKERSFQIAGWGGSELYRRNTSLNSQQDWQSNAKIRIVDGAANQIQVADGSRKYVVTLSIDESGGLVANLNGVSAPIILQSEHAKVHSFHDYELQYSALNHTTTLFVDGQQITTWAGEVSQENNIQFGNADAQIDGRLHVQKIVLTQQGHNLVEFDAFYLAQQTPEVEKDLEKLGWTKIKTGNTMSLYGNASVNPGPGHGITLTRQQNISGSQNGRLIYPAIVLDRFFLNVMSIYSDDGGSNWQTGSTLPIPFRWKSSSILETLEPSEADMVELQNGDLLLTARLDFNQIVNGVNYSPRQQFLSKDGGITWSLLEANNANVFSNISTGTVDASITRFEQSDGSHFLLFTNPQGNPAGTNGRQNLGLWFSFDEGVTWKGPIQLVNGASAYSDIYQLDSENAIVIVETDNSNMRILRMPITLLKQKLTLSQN
Procedure: (§1) Compound (IV) was incubated at 37° C. with Vibrio cholerae neuraminidase (450 U/ml) in 0.1M acetate buffer, pH 5.6, containing 0.9% NaCi and 0.1% CaCl2. Neuraminidase cleavage was determined on aliquots taken at intervals by TLC analysis (Merck silica gel plates in propanol/ethanol/25% aqueous ammonia, 2:2:1). Spots were developed by charring the plates with 3% H3 PO4 at 150° C. and quantitated densitometrically. The results are depicted in The FIGURE (v).

[6] = test system: influenza virus England/321/77; test: Fetuin binding inhibition assay, influenza virus England/321/77; settings: for A^i (absorbance): 492 nm
[7] = test system: influenza virus USSR/90/77; test: Fetuin binding inhibition assay, influenza virus USSR/90/77; settings: for A^i (absorbance): 492 nm
[8] = test system: influenza virus B/USSR/100/83; test: Fetuin binding inhibition assay, influenza virus B/USSR/100/83; settings: for A^i (absorbance): 492 nm
influenza virus X-31 = test: Fetuin binding inhibition assay, influenza virus X-31; settings: for A^i (absorbance): 492 nm
[9] = test system: influenza virus Victoria/3/75; test: Fetuin binding inhibition assay, influenza virus Victoria/3/75; settings: for A^i (absorbance): 492 nm
[10] = assay type: physicochemical; settings: control solutions without enzyme
Procedure: as §1

[11] = test system: influenza virus B/Singapore/222/79; test: Fetuin binding inhibition assay, influenza virus B/Singapore/222/79; settings: for A^i (absorbance): 492 nm
[12] = test system: influenza virus hemagglutinin; settings: prior art; cited from earlier work
neuraminidase = settings: prior art; cited from earlier work
[13] = test system: influenza virus Philippines/2/82; test: Fetuin binding inhibition assay, influenza virus Philippines/2/82; settings: for A^i (absorbance): 492 nm
[14] = test system: influenza virus Chile/1/83; test: Fetuin binding inhibition assay, influenza virus Chile/1/83; settings: for A^i (absorbance): 492 nm
[15] = test system: influenza virus Port Chalmers/1/73; test: Fetuin binding inhibition assay, influenza virus Port Chalmers/1/73; settings: for A^i (absorbance): 492 nm
[16] = test system: influenza virus B/Hong Kong/8/73; test: Fetuin binding inhibition assay, influenza virus B/Hong Kong/8/73; settings: for A^i (absorbance): 492 nm
[17] = test system: influenza virus USSR/3/85; test: Fetuin binding inhibition assay, influenza virus USSR/3/85; settings: for A^i (absorbance): 492 nm

CC(=S)NC1C(O)CC(OCc2ccc(NC(=S)CN)cc2)(C(=O)O)OC1C(O)C(O)CO [VIII, p-thioglycylamidobenzyl 3,5-dideoxy-5-thioacetamido-α-D-glycero-D-galacto-nonulopyranosidonic acid]
Stability [1]: unstable

CC(=O)NC1C(O)CC(OCc2ccccc2)(C(=O)O)OC1C(O)C(O)CO [IX, benzyl 5-acetamido-3,5-dideoxy-α-D-glycero-D-galacto-nonulopyranosidonic acid (sodium salt), reference compound]
-lgKd(i) ([2]; 1.28 mM sialoside): 3.0 | A^i (absorbance) ([2]; 1.28 mM sialoside): 0.22 | -lgKd(i) ([2]; .32 mM sialoside): 2.8 | A^i (absorbance) ([2]; .32 mM sialoside): 0.36 | -lgKd(i) ([2]; .64 mM sialoside): 2.9 | A^i (absorbance) ([2]; .64 mM sialoside): 0.31 | -lgKd ± SD ([2]; mean over concentrations): 2.9 ± 0.1 | -lgKd(i) ([3]; 1.28 mM sialoside): 3.5 | A^i (absorbance) ([3]; 1.28 mM sialoside): 0.12 | -lgKd(i) ([3]; .32 mM sialoside): 3.1 | A^i (absorbance) ([3]; .32 mM sialoside): 0.32 | -lgKd(i) ([3]; .64 mM sialoside): 3.3 | A^i (absorbance) ([3]; .64 mM sialoside): 0.25 | -lgKd ± SD ([3]; mean over concentrations): 3.3 ± 0.2 | -lgKd(i) ([4]; 1.60 mM sialoside): 5.1 | A^i (absorbance) ([4]; 1.60 mM sialoside): 0.04 | -lgKd(i) ([4]; .05 mM sialoside): 4.8 | A^i (absorbance) ([4]; .05 mM sialoside): 0.77 | -lgKd(i) ([4]; .10 mM sialoside): 4.9 | A^i (absorbance) ([4]; .10 mM sialoside): 0.55 | -lgKd(i) ([4]; .20 mM sialoside): 5.0 | A^i (absorbance) ([4]; .20 mM sialoside): 0.30 | -lgKd(i) ([4]; .40 mM sialoside): 4.9 | A^i (absorbance) ([4]; .40 mM sialoside): 0.20 | -lgKd(i) ([4]; .80 mM sialoside): 5.0 | A^i (absorbance) ([4]; .80 mM sialoside): 0.09 | -lgKd ± SD ([4]; mean over concentrations): 5.0 ± 0.1 | Neuraminidase cleavage [5]: cleaved much more rapidly | -lgKd(i) ([6]; .08 mM sialoside): 4.4 | A^i (absorbance) ([6]; .08 mM sialoside): 0.49 | -lgKd(i) ([6]; .16 mM sialoside): 4.6 | A^i (absorbance) ([6]; .16 mM sialoside): 0.21 | -lgKd(i) ([6]; .32 mM sialoside): 4.5 | A^i (absorbance) ([6]; .32 mM sialoside): 0.13 | -lgKd(i) ([6]; .64 mM sialoside): 4.8 | A^i (absorbance) ([6]; .64 mM sialoside): 0.04 | -lgKd ± SD ([6]; mean over concentrations): 4.5 ± 0.1 | -lgKd(i) ([7]; 1.28 mM sialoside): 2.8 | A^i (absorbance) ([7]; 1.28 mM sialoside): 0.6 | -lgKd(i) ([7]; .16 mM sialoside): 3.1 | A^i (absorbance) ([7]; .16 mM sialoside): 0.8 | -lgKd(i) ([7]; .32 mM sialoside): 3.1 | A^i (absorbance) ([7]; .32 mM sialoside): 0.7 | -lgKd ± SD ([7]; mean over concentrations): 3.0 ± 0.17 | -lgKd(i) ([8]; 1.28 mM sialoside): 3.1 | A^i (absorbance) ([8]; 1.28 mM sialoside): 0.9 | -lgKd(i) ([8]; .16 mM sialoside): 3.6 | A^i (absorbance) ([8]; .16 mM sialoside): 1.2 | -lgKd(i) ([8]; .32 mM sialoside): 3.6 | A^i (absorbance) ([8]; .32 mM sialoside): 1.0 | -lgKd ± SD ([8]; mean over concentrations): 3.4 ± 0.3 | -lgKd(i) (influenza virus X-31; 1.28 mM sialoside): 2.8 | A^i (absorbance) (influenza virus X-31; 1.28 mM sialoside): 0.66 | -lgKd(i) (influenza virus X-31; .32 mM sialoside): 3.1 | A^i (absorbance) (influenza virus X-31; .32 mM sialoside): 0.86 | -lgKd(i) (influenza virus X-31; .64 mM sialoside): 2.7 | A^i (absorbance) (influenza virus X-31; .64 mM sialoside): 0.84 | -lgKd ± SD (influenza virus X-31; mean over concentrations): 2.9 ± 0.21 | -lgKd(i) ([9]; 1.60 mM sialoside): 4.2 | A^i (absorbance) ([9]; 1.60 mM sialoside): 0.09 | -lgKd(i) ([9]; .05 mM sialoside): 4.0 | A^i (absorbance) ([9]; .05 mM sialoside): 0.64 | -lgKd(i) ([9]; .10 mM sialoside): 4.0 | A^i (absorbance) ([9]; .10 mM sialoside): 0.58 | -lgKd(i) ([9]; .20 mM sialoside): 4.05 | A^i (absorbance) ([9]; .20 mM sialoside): 0.45 | -lgKd(i) ([9]; .40 mM sialoside): 4.1 | A^i (absorbance) ([9]; .40 mM sialoside): 0.31 | -lgKd(i) ([9]; .80 mM sialoside): 4.2 | A^i (absorbance) ([9]; .80 mM sialoside): 0.16 | -lgKd ± SD ([9]; mean over concentrations): 4.1 ± 0.08 | Stability in the absence of enzyme [10]: at least 23 hours | -lgKd(i) ([11]; 1.28 mM sialoside): 3.4 | A^i (absorbance) ([11]; 1.28 mM sialoside): 0.39 | -lgKd(i) ([11]; .16 mM sialoside): 3.4 | A^i (absorbance) ([11]; .16 mM sialoside): 0.85 | -lgKd(i) ([11]; .32 mM sialoside): 3.3 | A^i (absorbance) ([11]; .32 mM sialoside): 0.76 | -lgKd(i) ([11]; .64 mM sialoside): 3.2 | A^i (absorbance) ([11]; .64 mM sialoside): 0.65 | -lgKd ± SD ([11]; mean over concentrations): 3.3 ± 0.1 | Inhibition of attachment [12]: shows greater inhibition of attachment than 5-acetyl neuraminic acid itself | Susceptibility to neuraminidase cleavage (neuraminidase): not immune to this cleavage | -lgKd(i) ([13]; .05 mM sialoside): 5.2 | A^i (absorbance) ([13]; .05 mM sialoside): 0.35 | -lgKd(i) ([13]; .10 mM sialoside): 5.3 | A^i (absorbance) ([13]; .10 mM sialoside): 0.18 | -lgKd(i) ([13]; .20 mM sialoside): 5.4 | A^i (absorbance) ([13]; .20 mM sialoside): 0.08 | -lgKd(i) ([13]; .40 mM sialoside): 5.4 | A^i (absorbance) ([13]; .40 mM sialoside): 0.05 | -lgKd(i) ([13]; .80 mM sialoside): 5.3 | A^i (absorbance) ([13]; .80 mM sialoside): 0.03 | -lgKd ± SD ([13]; mean over concentrations): 5.3 ± 0.08 | -lgKd(i) ([14]; 1.28 mM sialoside): 3.4 | A^i (absorbance) ([14]; 1.28 mM sialoside): 0.42 | -lgKd(i) ([14]; .16 mM sialoside): 3.2 | A^i (absorbance) ([14]; .16 mM sialoside): 0.9 | -lgKd(i) ([14]; .32 mM sialoside): 3.4 | A^i (absorbance) ([14]; .32 mM sialoside): 0.72 | -lgKd(i) ([14]; .64 mM sialoside): 3.3 | A^i (absorbance) ([14]; .64 mM sialoside): 0.62 | -lgKd ± SD ([14]; mean over concentrations): 3.3 ± 0.1 | -lgKd(i) ([15]; 1.60 mM sialoside): 3.4 | A^i (absorbance) ([15]; 1.60 mM sialoside): 0.20 | -lgKd(i) ([15]; .05 mM sialoside): 3.7 | A^i (absorbance) ([15]; .05 mM sialoside): 0.51 | -lgKd(i) ([15]; .10 mM sialoside): 4.1 | A^i (absorbance) ([15]; .10 mM sialoside): 0.36 | -lgKd(i) ([15]; .20 mM sialoside): 3.8 | A^i (absorbance) ([15]; .20 mM sialoside): 0.36 | -lgKd(i) ([15]; .40 mM sialoside): 3.6 | A^i (absorbance) ([15]; .40 mM sialoside): 0.33 | -lgKd(i) ([15]; .80 mM sialoside): 3.5 | A^i (absorbance) ([15]; .80 mM sialoside): 0.28 | -lgKd ± SD ([15]; mean over concentrations): 3.7 ± 0.3 | -lgKd(i) ([16]; 1.28 mM sialoside): 3.0 | A^i (absorbance) ([16]; 1.28 mM sialoside): 0.32 | -lgKd(i) ([16]; .32 mM sialoside): 2.7 | A^i (absorbance) ([16]; .32 mM sialoside): 0.55 | -lgKd(i) ([16]; .64 mM sialoside): 2.8 | A^i (absorbance) ([16]; .64 mM sialoside): 0.48 | -lgKd ± SD ([16]; mean over concentrations): 2.8 ± 0.15 | -lgKd(i) ([17]; 1.28 mM sialoside): 4.5 | A^i (absorbance) ([17]; 1.28 mM sialoside): 0.06 | -lgKd(i) ([17]; .08 mM sialoside): 4.5 | A^i (absorbance) ([17]; .08 mM sialoside): 0.5 | -lgKd(i) ([17]; .16 mM sialoside): 4.6 | A^i (absorbance) ([17]; .16 mM sialoside): 0.28 | -lgKd(i) ([17]; .32 mM sialoside): 4.6 | A^i (absorbance) ([17]; .32 mM sialoside): 0.16 | -lgKd(i) ([17]; .64 mM sialoside): 4.6 | A^i (absorbance) ([17]; .64 mM sialoside): 0.08 | -lgKd ± SD ([17]; mean over concentrations): 4.6 ± 0.05
